Assay results from patent publication US12371428B2 (Exelixis, Inc., priority 2019, dated 2025).

Key:
Type in all cases: cell-based
[1] = molecular target: KDR (phospho-KDR, VEGF165-stimulated HUVEC cells) (Homo sapiens (Human), UniProt P35968); assay: KDR autophosphorylation ELISA in HUVEC cells (Example G); conditions: cellular activity; KDR autophosphorylation ELISA in HUVEC cells
How it was run: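 HUVECs were serum-starved 24 h, given compound as an 8-point dilution series (0.3% DMSO final) for 1 h, then stimulated with 100 ng/mL VEGF165 for 5 min. Lysate phospho-KDR was quantified by sandwich ELISA against a phospho-KDR standard, and IC50s came from a 4-parameter logistic fit.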

[2] = molecular target: Mer (phospho-Mer, MERTK-transfected 293A cells) (Homo sapiens (Human), UniProt Q12866); assay: Mer autophosphorylation ELISA in transient transfected 293A cells (Example H); conditions: cellular activity; Mer autophosphorylation ELISA in transient transfected 293A cells
How it was run: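 Inhibition of cellular Mer autophosphorylation is determined in 293A cells transiently expressing human MERTK after 1 h compound exposure (8 concentrations, serum-free, 0.3% DMSO). Phospho-Mer in clarified lysates is measured by ELISA, with DMSO and reference-inhibitor wells defining the 100% and 0% activity limits.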

[3] = molecular target: AXL (phospho-AXL, Gas6-stimulated A-172 glioblastoma cells) (Homo sapiens (Human), UniProt P30530); assay: AXL autophosphorylation ELISA in A-172 cells (Example E); conditions: cellular activity; AXL autophosphorylation ELISA in A-172 cells; read-out: Axl IC50
How it was run: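 Phospho-AXL in lysates was quantified by ELISA, normalised to DMSO (100%) and reference inhibitor (0%) controls. IC50 by 4-parameter logistic fit.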

[4] = molecular target: Met (phospho-Met, HGF-stimulated PC-3 prostate cancer cells) (Homo sapiens (Human), UniProt P08581); assay: Met autophosphorylation ELISA in PC-3 cells (Example F); conditions: cellular activity; Met autophosphorylation ELISA in PC-3 cells; read-out: c-Met IC50
How it was run: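 PC-3 cells, serum-starved 3 h, were treated with compounds (8-point dose curve, 0.3% DMSO final) for 1 h, then stimulated with 100 ng/mL recombinant human HGF for 10 min. Lysate phospho-Met (panTyr) was quantified by sandwich ELISA; IC50 from 4-parameter logistic fit.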

Chain of AXL (phospho-AXL, Gas6-stimulated A-172 glioblastoma cells) (P30530 26-894): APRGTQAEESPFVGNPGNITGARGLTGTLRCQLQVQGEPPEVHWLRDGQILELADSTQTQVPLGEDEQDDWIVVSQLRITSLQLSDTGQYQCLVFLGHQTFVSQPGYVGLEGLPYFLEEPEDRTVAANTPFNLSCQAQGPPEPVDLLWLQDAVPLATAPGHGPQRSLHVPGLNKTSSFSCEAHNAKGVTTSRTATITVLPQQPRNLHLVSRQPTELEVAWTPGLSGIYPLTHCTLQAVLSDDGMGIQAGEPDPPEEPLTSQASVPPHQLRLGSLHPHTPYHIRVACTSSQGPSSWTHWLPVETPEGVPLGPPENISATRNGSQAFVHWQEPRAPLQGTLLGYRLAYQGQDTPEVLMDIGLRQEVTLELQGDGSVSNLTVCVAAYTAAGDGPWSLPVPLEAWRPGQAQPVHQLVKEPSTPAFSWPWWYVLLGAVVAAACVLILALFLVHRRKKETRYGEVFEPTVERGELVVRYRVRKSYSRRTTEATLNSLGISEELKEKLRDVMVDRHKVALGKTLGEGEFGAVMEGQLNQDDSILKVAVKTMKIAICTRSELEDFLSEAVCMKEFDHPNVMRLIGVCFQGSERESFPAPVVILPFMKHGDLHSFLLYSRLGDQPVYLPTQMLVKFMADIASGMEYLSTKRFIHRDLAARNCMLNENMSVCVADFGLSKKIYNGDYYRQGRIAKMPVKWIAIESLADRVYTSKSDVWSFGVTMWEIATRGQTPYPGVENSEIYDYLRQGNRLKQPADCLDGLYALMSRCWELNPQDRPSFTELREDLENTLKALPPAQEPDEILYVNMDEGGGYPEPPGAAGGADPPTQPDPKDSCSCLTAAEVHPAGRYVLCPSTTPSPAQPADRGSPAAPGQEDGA
Chain of Met (phospho-Met, HGF-stimulated PC-3 prostate cancer cells) (P08581 25-1390): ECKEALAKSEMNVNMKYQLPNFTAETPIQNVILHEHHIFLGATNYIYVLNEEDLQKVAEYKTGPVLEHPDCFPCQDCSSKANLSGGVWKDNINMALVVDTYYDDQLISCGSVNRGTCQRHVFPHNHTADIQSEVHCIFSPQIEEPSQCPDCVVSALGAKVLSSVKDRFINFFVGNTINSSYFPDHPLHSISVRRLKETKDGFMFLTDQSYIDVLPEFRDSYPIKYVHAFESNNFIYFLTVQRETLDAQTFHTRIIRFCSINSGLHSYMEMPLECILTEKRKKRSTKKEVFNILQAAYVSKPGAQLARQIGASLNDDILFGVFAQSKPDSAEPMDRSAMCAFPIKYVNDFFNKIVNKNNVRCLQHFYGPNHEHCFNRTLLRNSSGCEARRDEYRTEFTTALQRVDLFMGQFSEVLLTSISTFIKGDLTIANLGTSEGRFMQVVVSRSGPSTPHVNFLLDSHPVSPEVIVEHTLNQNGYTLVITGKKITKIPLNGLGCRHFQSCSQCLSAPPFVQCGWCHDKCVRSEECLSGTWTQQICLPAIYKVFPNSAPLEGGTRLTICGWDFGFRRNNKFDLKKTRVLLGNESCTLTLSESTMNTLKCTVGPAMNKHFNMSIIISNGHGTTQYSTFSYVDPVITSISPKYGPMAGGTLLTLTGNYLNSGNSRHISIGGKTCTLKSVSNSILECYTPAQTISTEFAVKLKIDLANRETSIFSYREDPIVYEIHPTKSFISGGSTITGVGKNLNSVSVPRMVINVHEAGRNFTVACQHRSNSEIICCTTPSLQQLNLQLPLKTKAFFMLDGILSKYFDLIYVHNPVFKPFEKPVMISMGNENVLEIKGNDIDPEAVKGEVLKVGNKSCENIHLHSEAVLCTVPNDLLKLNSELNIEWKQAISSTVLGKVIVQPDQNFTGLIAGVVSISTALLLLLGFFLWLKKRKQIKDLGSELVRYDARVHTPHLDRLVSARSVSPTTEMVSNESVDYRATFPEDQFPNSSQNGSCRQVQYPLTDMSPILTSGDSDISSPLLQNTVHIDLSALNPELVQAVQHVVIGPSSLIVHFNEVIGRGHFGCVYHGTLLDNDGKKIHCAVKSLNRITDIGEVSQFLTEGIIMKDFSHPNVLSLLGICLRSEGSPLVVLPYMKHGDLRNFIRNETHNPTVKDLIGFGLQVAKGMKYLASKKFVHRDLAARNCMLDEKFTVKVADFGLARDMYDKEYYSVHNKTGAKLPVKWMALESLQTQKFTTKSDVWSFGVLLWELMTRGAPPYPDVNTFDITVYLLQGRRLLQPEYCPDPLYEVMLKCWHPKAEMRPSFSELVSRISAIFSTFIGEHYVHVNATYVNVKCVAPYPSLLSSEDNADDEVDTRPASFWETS
Chain of KDR (phospho-KDR, VEGF165-stimulated HUVEC cells) (P35968 20-1356): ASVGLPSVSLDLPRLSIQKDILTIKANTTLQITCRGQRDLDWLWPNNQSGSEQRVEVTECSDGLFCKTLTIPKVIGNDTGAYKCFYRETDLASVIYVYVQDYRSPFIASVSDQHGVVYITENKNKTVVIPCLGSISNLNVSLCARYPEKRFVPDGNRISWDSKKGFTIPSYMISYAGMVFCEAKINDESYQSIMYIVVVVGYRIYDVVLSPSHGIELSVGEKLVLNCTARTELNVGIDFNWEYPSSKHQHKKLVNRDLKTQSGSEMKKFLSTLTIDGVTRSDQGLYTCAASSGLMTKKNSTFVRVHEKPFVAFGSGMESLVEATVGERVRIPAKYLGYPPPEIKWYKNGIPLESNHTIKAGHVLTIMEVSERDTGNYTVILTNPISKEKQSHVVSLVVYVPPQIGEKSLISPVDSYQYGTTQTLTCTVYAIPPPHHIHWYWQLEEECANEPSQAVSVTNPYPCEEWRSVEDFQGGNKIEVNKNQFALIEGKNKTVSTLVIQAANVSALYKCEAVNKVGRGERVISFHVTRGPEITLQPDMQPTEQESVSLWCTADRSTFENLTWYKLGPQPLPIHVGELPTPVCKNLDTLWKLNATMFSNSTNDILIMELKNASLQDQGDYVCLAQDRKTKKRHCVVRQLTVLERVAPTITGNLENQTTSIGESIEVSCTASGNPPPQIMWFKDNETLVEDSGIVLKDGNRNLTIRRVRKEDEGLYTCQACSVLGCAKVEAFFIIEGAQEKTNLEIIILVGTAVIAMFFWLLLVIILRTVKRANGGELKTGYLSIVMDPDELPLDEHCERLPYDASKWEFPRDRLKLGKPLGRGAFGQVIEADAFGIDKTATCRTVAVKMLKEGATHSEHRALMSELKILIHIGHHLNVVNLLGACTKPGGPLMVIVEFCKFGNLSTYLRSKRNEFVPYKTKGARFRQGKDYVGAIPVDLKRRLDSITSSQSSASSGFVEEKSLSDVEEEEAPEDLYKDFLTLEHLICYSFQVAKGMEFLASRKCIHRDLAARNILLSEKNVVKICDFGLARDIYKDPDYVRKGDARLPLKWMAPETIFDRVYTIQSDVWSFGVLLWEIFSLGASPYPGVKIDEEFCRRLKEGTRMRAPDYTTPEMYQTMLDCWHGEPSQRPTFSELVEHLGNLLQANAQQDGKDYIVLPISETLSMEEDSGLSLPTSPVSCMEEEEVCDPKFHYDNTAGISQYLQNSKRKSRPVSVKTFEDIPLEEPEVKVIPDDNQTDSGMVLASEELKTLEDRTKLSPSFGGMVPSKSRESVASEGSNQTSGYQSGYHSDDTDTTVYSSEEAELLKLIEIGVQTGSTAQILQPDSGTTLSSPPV
Chain of Mer (phospho-Mer, MERTK-transfected 293A cells) (Q12866 21-999): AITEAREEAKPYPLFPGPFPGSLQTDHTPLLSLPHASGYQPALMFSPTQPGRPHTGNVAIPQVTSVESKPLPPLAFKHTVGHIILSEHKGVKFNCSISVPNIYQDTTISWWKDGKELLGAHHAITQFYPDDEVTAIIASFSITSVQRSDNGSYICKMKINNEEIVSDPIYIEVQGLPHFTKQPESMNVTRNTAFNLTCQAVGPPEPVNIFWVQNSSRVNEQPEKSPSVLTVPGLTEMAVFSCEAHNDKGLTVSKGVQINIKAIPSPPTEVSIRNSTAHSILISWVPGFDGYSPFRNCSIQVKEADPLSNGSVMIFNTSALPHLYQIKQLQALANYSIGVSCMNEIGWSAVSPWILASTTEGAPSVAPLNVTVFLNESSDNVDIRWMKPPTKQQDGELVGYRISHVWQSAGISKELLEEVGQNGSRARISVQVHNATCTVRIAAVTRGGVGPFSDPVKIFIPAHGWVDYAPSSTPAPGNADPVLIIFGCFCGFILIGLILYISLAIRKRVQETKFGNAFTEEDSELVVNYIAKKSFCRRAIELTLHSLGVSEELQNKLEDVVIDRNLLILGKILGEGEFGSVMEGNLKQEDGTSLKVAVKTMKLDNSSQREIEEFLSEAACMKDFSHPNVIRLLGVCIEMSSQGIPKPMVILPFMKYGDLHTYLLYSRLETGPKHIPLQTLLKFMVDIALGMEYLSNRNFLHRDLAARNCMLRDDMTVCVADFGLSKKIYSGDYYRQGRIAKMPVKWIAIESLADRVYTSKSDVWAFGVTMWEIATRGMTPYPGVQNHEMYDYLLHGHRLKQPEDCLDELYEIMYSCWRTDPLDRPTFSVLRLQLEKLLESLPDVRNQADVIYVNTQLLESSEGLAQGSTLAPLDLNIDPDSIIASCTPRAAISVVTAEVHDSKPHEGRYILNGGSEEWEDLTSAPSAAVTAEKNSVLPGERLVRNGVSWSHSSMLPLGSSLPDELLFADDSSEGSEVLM

IC50 [1] | IC50 [2] | IC50 [3] | IC50 [4] | Structure (SMILES)
< 100 nM | < 100 nM | < 100 nM | < 100 nM | COc1cc2nccc(Oc3ccc(NC(=O)c4c(C)n(C)nc(-c5ccc(F)cc5)c4=O)cc3F)c2nc1OC [Compound 655, N-[4-[(6,7-dimethoxy-1,5-naphthyridin-4-yl)oxy]-3-fluorophenyl]-6-(4-fluorophenyl)-2,3-dimethyl-5-oxopyridazine-4-carboxamide]
> 300 nM | < 100 nM | < 100 nM | < 100 nM | COc1cc2nccc(Oc3ccc(NC(=O)c4cn(C(C)(C)CO)cc(-c5ccc(F)cc5)c4=O)cc3F)c2cc1OC [Compound 57, N-[4-(6,7-Dimethoxyquinolin-4-yl)oxy-3-fluorophenyl]-5-(4-fluorophenyl)-1-(1-hydroxy-2-methylpropan-2-yl)-4-oxopyridine-3-carboxamide]
< 100 nM | < 100 nM | < 100 nM | < 100 nM | COc1cc2nccc(Oc3ccc(NC(=O)c4c(C)[nH]nc(-c5ccc(F)cc5C)c4=O)cc3F)c2nc1OC [Compound 738, N-[4-[(6,7-dimethoxy-1,5-naphthyridin-4-yl)oxy]-3-fluorophenyl]-3-(4-fluoro-2-methylphenyl)-6-methyl-4-oxo-1H-pyridazine-5-carboxamide]
< 100 nM | < 100 nM | < 100 nM | < 100 nM | COc1cc2nccc(Oc3ccc(NC(=O)c4c(C)ccn(-c5ccc(F)cc5C)c4=O)cc3F)c2nc1OC [Compound 311, N-[4-[(6,7-Dimethoxy-1,5-naphthyridin-4-yl)oxy]-3-fluorophenyl]-1-(4-fluoro-2-methylphenyl)-4-methyl-2-oxopyridine-3-carboxamide]
> 300 nM | < 100 nM | < 100 nM | < 100 nM | Cc1ncc(C(=O)Nc2ccc(Oc3ccnc4cnc(Cl)cc34)c(F)c2)c(=O)n1-c1ccc(F)cc1 [Compound 497, N-[4-[(6-chloro-1,7-naphthyridin-4-yl)oxy]-3-fluorophenyl]-1-(4-fluorophenyl)-2-methyl-6-oxopyrimidine-5-carboxamide]
100 to 300 nM | < 100 nM | < 100 nM | < 100 nM | COc1cc2nccc(Oc3ccc(NC(=O)c4c(C)n(CCF)cc(-c5ccc(F)cc5)c4=O)cc3F)c2nc1OC [Compound 666, N-[4-[(6,7-dimethoxy-1,5-naphthyridin-4-yl)oxy]-3-fluorophenyl]-1-(2-fluoroethyl)-5-(4-fluorophenyl)-2-methyl-4-oxopyridine-3-carboxamide]
< 100 nM | < 100 nM | < 100 nM | < 100 nM | C=C(C)c1cnc2c(Oc3ccc(NC(=O)c4c(C)nc(C)c(-c5ccc(F)cc5C)c4O)cc3F)ccnc2c1 [Compound 461, 5-(4-fluoro-2-methylphenyl)-N-[3-fluoro-4-[(7-prop-1-en-2-yl-1,5-naphthyridin-4-yl)oxy]phenyl]-4-hydroxy-2,6-dimethylpyridine-3-carboxamide]
> 300 nM | < 100 nM | < 100 nM | < 100 nM | COc1cc2nccc(Oc3ccc(NC(=O)c4c(C)c(C(N)=O)c(C)n(-c5ccc(F)cc5)c4=O)cc3)c2nc1OC [Compound 319, 5-N-[4-[(6,7-Dimethoxy-1,5-naphthyridin-4-yl)oxy]phenyl]-1-(4-fluorophenyl)-2,4-dimethyl-6-oxopyridine-3,5-dicarboxamide]
> 300 nM | < 100 nM | < 100 nM | < 100 nM | COc1cc2nccc(Oc3ccc(NC(=O)c4cn(C5(C)COC5)cc(-c5ccc(F)cc5)c4=O)cc3F)c2cc1OC [Compound 55, N-[4-(6,7-Dimethoxyquinolin-4-yl)oxy-3-fluorophenyl]-5-(4-fluorophenyl)-1-(3-methyloxetan-3-yl)-4-oxopyridine-3-carboxamide]
< 100 nM | < 100 nM | < 100 nM | < 100 nM | COc1cnc2c(Oc3cc(F)c(NC(=O)c4c(C)nc(C)c(-c5ccc(F)cc5C)c4O)cc3F)ccnc2c1 [Compound 751, N-[2,5-difluoro-4-[(7-methoxy-1,5-naphthyridin-4-yl)oxy]phenyl]-5-(4-fluoro-2-methylphenyl)-4-hydroxy-2,6-dimethylpyridine-3-carboxamide]

Further lines, the compound ahead of its results:

Structure (SMILES) | IC50 [1] | IC50 [2] | IC50 [3] | IC50 [4]
C=C(C)c1cnc2c(Oc3ccc(NC(=O)c4nn(C)c(C)c(-c5ccc(F)cc5)c4=O)cc3F)ccnc2c1 [Compound 477, 5-(4-fluorophenyl)-N-[3-fluoro-4-[(7-prop-1-en-2-yl-1,5-naphthyridin-4-yl)oxy]phenyl]-1,6-dimethyl-4-oxopyridazine-3-carboxamide] | > 300 nM | < 100 nM | < 100 nM | < 100 nM
C=C(C)c1cnc2c(Oc3ccc(NC(=O)c4nn(CC)c(C)c(-c5ccc(F)cc5)c4=O)cc3F)ccnc2c1 [Compound 475, 1-ethyl-5-(4-fluorophenyl)-N-[3-fluoro-4-[(7-prop-1-en-2-yl-1,5-naphthyridin-4-yl)oxy]phenyl]-6-methyl-4-oxopyridazine-3-carboxamide] | < 100 nM | < 100 nM | < 100 nM | < 100 nM
CCOc1nc2c(Oc3ccc(NC(=O)c4c(C)ncc(-c5ccc(F)cc5)c4O)cc3)ccnc2cc1OC [Compound 671, N-[4-[(6-ethoxy-7-methoxy-1,5-naphthyridin-4-yl)oxy]phenyl]-5-(4-fluorophenyl)-4-hydroxy-2-methylpyridine-3-carboxamide] | < 100 nM | < 100 nM | < 100 nM | < 100 nM
COCCOc1cc2c(Oc3ccc(NC(=O)c4cn(C)c(C)c(-c5ccc(F)cc5)c4=O)cc3F)ccnc2nc1OC [Compound 760, N-[3-fluoro-4-[[7-methoxy-6-(2-methoxyethoxy)-1,8-naphthyridin-4-yl]oxy]phenyl]-5-(4-fluorophenyl)-1,6-dimethyl-4-oxopyridine-3-carboxamide] | > 300 nM | < 100 nM | < 100 nM | < 100 nM
COc1cnc2c(Oc3ccc(NC(=O)c4c(C)ncc(-c5ccc(F)c(F)c5)c4O)cc3F)ccnc2c1 [Compound 797, 5-(3,4-difluorophenyl)-N-[3-fluoro-4-[(7-methoxy-1,5-naphthyridin-4-yl)oxy]phenyl]-4-hydroxy-2-methylpyridine-3-carboxamide] | < 100 nM | < 100 nM | < 100 nM | < 100 nM
COc1cc2nccc(Oc3ccc(NC(=O)c4c(C)c(C(C)=O)cn(-c5ccc(F)cc5C)c4=O)cc3F)c2nc1OC [Compound 739, 5-acetyl-N-[4-[(6,7-dimethoxy-1,5-naphthyridin-4-yl)oxy]-3-fluorophenyl]-1-(4-fluoro-2-methylphenyl)-4-methyl-2-oxopyridine-3-carboxamide] | > 300 nM | < 100 nM | < 100 nM | < 100 nM
COc1cc2c(Oc3ccc(NC(=O)c4ncc(C)n(-c5ccc(F)cc5)c4=O)cc3F)ccnc2cn1 [Compound 500, N-[3-fluoro-4-[(6-methoxy-1,7-naphthyridin-4-yl)oxy]phenyl]-4-(4-fluorophenyl)-5-methyl-3-oxopyrazine-2-carboxamide] | 100 to 300 nM | < 100 nM | < 100 nM | < 100 nM
